Test [1] concerns tobacco mosaic virus (TMV). In words: Direct effect on TMV infectivity: virus incubated with substance, then Xanthi tobacco leaves infected (Example 21). The conditions noted are these: TMV about 3 μg/ml mixed 1:1 with substance 80 mg/L, 30 min; 5 days after infection; control 100. The format is in vivo. As to the method:
Sodium 3-chlorosalicylate; 5. Potassium 3-chlorosalicylate; 6. Calcium 3-chlorosalicylate; 7. Magnesium 3-chlorosalicylate (concentration 80 mg/L), in a 1:1 ratio and incubated for 30 min at room temperature. The control variant consisted of TMV incubated in water. All virus suspensions were used to mechanically infect Xanthi tobacco leaves, whose reaction to infection is manifested in easily quantifiable local necrotic spots (hypersensitivity, local infection).
After 5 days, the area of leaf covered by necrotic spots compared to total leaf area was calculated for plants of all variants of treatment.

Test [2] concerns Pseudomonas syringae pv. Tomato (Pst). In words: Protection of tomato against Pseudomonas syringae pv. Tomato by watering (Example 32). In kind it is in vivo. The conditions noted are these: 80 mg/L; watered twice; Pst 10^5; 2 weeks after infection. As to the method: (§1) Tomato plants, at the stage of the first pair of developed true leaves, were watered twice with a solution of substance 1-6 at a concentration of 80 mg/L, at a weekly interval. The control was tomato plants watered only with water. One week after the second treatment, a suspension of Pst bacteria at a concentration of 10^5 was spot-injected into the leaves using an insulin syringe (without a needle). The suspension was prepared from a two-day culture of Pst on solid medium. Protection against biotic stress was evaluated by the proliferation of bacteria in the leaves at the insertion site and the formation of a necrotic spot, compared to the control.

Test [3] concerns powdery mildew fungus. In words: Direct effect on fungal infectivity (Example 23). Particulars: tobacco plant, 5 days after infection with solution of fungus and test substance; control 100. In kind it is in vivo. The method, then: Proceeding as in Example 21, the test was performed on the powdery mildew fungus, which was then incubated on the medium.
In test [4] the test system is Pseudomonas syringae pv. Tomato (Pst). In words: Protection of tomato against Pseudomonas syringae pv. Tomato by spraying (Example 33). The format is in vivo, Lycopersicon Esculentum Mill tomato. The conditions noted are these: 80 mg/L, sprayed twice; 2 weeks after infection. As to the method:
as §1
The procedure was followed as in Example 32, with the plants sprayed.

For test [5], the system named is Tobacco Mosaic Virus (TMV). In words: Protection of tobacco against TMV infection by spraying twice (Example 25). In kind it is in vivo, Nicotiana tabacum cv. Xanthi. Particulars: sprayed twice, 7 days after infection. An excerpt: 5-chlorosalicylate of choline; 3. 3,5-dichlorosalicylate of choline; 4. 3-chlorosalicylate of sodium, 5. 3-chlorosalicylate of potassium, 6. 3-chlorosalicylate of calcium, 7.

The test system of test [6] is TMV. In words: Protection of tobacco against TMV infected 3 weeks after the last treatment (Example 27). The format is in vivo. Particulars: infected with TMV 3 weeks after the last treatment. The method, then:
They proceeded as in Example 24, using substances 1-4 at concentrations of 10, 40 and 80 mg/L for treatment, with treated and control plants divided into 3 batches and their leaves infected with the virus 1, 2 and 3 weeks after the last treatment, respectively. […] A similar effect occurred with spraying.

Test [7] concerns TMV. In words: Protection of tobacco against TMV, single spray, comparison with BION (Example 26). In kind it is in vivo, Nicotiana tabacum cv. Xanthi. Particulars: sprayed once, infected a week later. As to the method: Tobacco plants (Nicotiana tabacum) cv. Xanthi at the stage of three developed leaves were sprayed once with solutions of substance 1-5 or BION™ at concentrations of 10, 40, 80 mg/L. A week later, they were mechanically infected with TMV by rubbing the leaves with a square soaked in a suspension of purified virus, with a concentration of about 2 μg/ml. The level of protection against the effects of biotic stress was evaluated by comparing the number of necrotic spots caused by TMV on the leaves of plants treated with substances 1-5 and BION™ and control plants.
A reduction in the number of necrotic spots indicates protection from the effects of the biotic agent on the plant.

Take `C[N+](C)(C)CCO.O=C([O-])c1cccc(Cl)c1O` [choline 3-chlorosalicylate]: the “% of necrotic spots” value in test [1] was 98%; in test [3], 100%. Besides, the “% reduction in necrotic spots compared to control” value in test [2] worked out at 92%; in test [4], 93%; in test [5] (10 mg/L), 80%; in test [5] (40 mg/L), 100%; in test [5] (80 mg/L), 85%; in test [6] (10 mg/L), 58%. For the same compound, the “% reduction in necrotic spots compared to control” value in test [6] (40 mg/L) is reported as 92%; in test [6] (80 mg/L), 98%; in test [7] (10 mg/L), 58%; in test [7] (40 mg/L), 92%; in test [7] (80 mg/L), 98%.

The record behind these values is patent US20260041093A1, “Ionic Derivatives Of Aromatic Carboxylic Acid For Use As Plant Stimulants, Method For Stimulating Plants And Use Of These Derivatives For Manufacturing Compositions For Stimulating Plants” (FUNDACJA UNIWERSYTETU IM. ADAMA MICKIEWICZA W POZNANIU, priority 2022, published 2026).
